We go through 2 molecules from patent US11718635B2, “Iron bis(imino) aryl catalysts and methods thereof” (ExxonMobil Chemical Patents Inc., priority 2019, dated 2023).

A short description of this data set: Solubility tests in anhydrous hexane (stirred 30 minutes at room temperature, filtered, solvent removed). The data set is classed as physicochemical. The protocol:
(§1) This solution was stirred for 30 minutes at room temperature. The contents were then filtered through a buchner filter funnel with a frit having a 4-5.5 micron size. The solvent was then removed en vacuo.
as §1

As for `CC(=Nc1c(C)cc(C)cc1Cl)c1cccc(C(C)=Nc2c(C)cc(C)cc2Cl)n1.[Cl][Fe][Cl]` [2,6-bis-[1-(2-chloro-4,6-dimethylphenylimino)ethyl]pyridine iron dichloride], where the note is “anhydrous hexane, stirred 30 minutes at room temperature, filtered through 4-5.5 micron frit”, the calculated solubility is 0.0 g/g hexane.

For “(E)-N-(2-chloro-4,6-dimethylphenyl)-1-(6-((E)-1-(mesitylimino)ethyl)pyridin-2-yl)ethan-1-imine iron-silylneopentyl [Catalyst 1]”, the “solubility in hydrophobic (nonpolar) solvents compared to the Comparative Catalyst” value was “significantly improved solubility”.
